Reference: patent publication US20260224544A1, “Intranasal Formulations for Treating Obstructive Sleep Apnea” (Mosanna Therapeutics AG, priority 2023, published 2026)
Entries after “also recorded” stand apart in the source; their conditions may differ. Each block holds one compound with its values, some of them ahead of it.

Columns and labels:
[1] = Compound 1 drug substance stability (ICH storage conditions); type: physicochemical; details: long term conditions 25±2° C./60±5%, data not shown
Method: A stability study for compound 1 batch H (non-micronized, GMP) was initiated as per ICH storage conditions described in Table 36.
Results for 1 month of storage at 25±2° C./60±5% RH, 30±2° C./65±5% RH and at 40±2° C./75±5% RH are available to date.
A stability study for compound 1 batch L and M (micronized to d90<10 μm and d90<35 μm respectively, scheduled GMP sublots of compound 1 batch H) will be initiated as per ICH reference storage conditions described in Table 37 and Table 38.
To date, only limited data are available on compound 1 drug substance both non-micronized and micronized.

[2] = Compound 1 drug substance batch analysis (particle size distribution); type: physicochemical
Description: The following compound 1 batches were manufactured (Table 31).

[3] = tested on: male patients with Obstructive Sleep Apnea-Hypopnea Syndrome (OSAHS); experiment: Phase 2 clinical trial: change from baseline in Apnea Hypopnea Index (AHI) by overnight polysomnography; type: in vivo, human; details: single intranasal dose 18 mg
Method: (§1) This was a single intranasal dose, multi-center, randomized, placebo-controlled, double-blind, 2-way crossover study with two treatment periods in male patients with Obstructive Sleep Apnea-Hypopnea Syndrome (OSAHS).
(§2) After a screening phase of up to 21 days, the patients received single doses of 18 mg of compound 1 administered as 3 actuations of 100 μL of study drug into each nostril (9 mg/nostril) or matching placebo at bedtime in each study period. The single nasal doses were administered in a sitting position. There was a wash-out period of 2 days to 3 weeks between the two study periods. The duration of the study per patient ranged from 13 days to a maximum of 8 weeks.
Efficacy was assessed in a blinded fashion using overnight polysomnographic recordings (PSG) which were centrally read and interpreted. The central readers were blinded with regard to the treatment sequence the patients received and with regard to potential safety findings. Maintenance of Wakefulness Tests (MWT) and Stanford Sleepiness Scores (SSS) were also used for the assessment of Excessive Daytime Sleepiness (EDS), and plasma concentrations of compound 1 were assessed at baseline and approximately 10 hours after study drug administration (data not shown). […]
Patients were analyzed using the treatment they actually received at each period, irrespective of the treatment sequence they were randomized to. […]

[4] = tested on: male patients with Obstructive Sleep Apnea-Hypopnea Syndrome (OSAHS); experiment: Phase 2 clinical trial: treatment emergent adverse events (TEAE); type: in vivo, human; details: single intranasal dose 18 mg, n = 38
Method: as §1, §2
The Safety population was defined as all randomized patients exposed to the study medication, regardless of the amount of treatment administered. Patients were analyzed using the treatment they actually received at each period.

[5] = tested on: upper airway collapsibility; details: anesthetized pigs, administered topically to the upper airway; Wirth et al. 2013; cited from earlier work

time for which stability was demonstrated ([1]; micronized, 2004 lot): up to 12 months
Structure (SMILES): COc1ccc(CC(=O)NCc2ccccc2-c2ccccc2C(=O)NCCc2cccnc2)cc1 [listing 1 of 2 here]

Particle size distribution d10 ([2]; micronized drug substance): d10 0.80 μm
Particle size distribution d50 ([2]; micronized drug substance): d50 2.3 μm
Particle size distribution d90 ([2]; micronized drug substance): d90 5.9 μm
Structure (SMILES): COc1ccc(CC(=O)NCc2ccccc2-c2ccccc2C(=O)NCCc2cccnc2)cc1 [Cmpd 1 batch L]

The remaining lines, values behind:

Structure (SMILES): COc1ccc(CC(=O)NCc2ccccc2-c2ccccc2C(=O)NCCc2cccnc2)cc1 [listing 2 of 2 here]
time for which stability was demonstrated ([1]; lots manufactured in 2004): up to 36 months

Structure (SMILES): COc1ccc(CC(=O)NCc2ccccc2-c2ccccc2C(=O)NCCc2cccnc2)cc1 [Cmpd 1 batch K]
Particle size distribution d10 ([2]; micronized drug substance): d10 1.81 μm
Particle size distribution d50 ([2]; micronized drug substance): d50 12.53 μm
Particle size distribution d90 ([2]; micronized drug substance): d90 30.01 μm

Structure (SMILES): COc1ccc(CC(=O)NCc2ccccc2-c2ccccc2C(=O)NCCc2cccnc2)cc1 [Compound 1, 2′-{[2-(4-methoxy-phenyl)-acetylamino]-methyl}-biphenyl-2-carboxylic acid (2-pyridin-3-yl-ethyl)-amide]
AHI (num/hr) LS mean difference, compound 1 versus placebo, change from baseline ([3]; ITT population): −3.78 num/hr
primary efficacy outcome (reduction of AHI versus placebo) [3]: not statistically significant; also recorded: no significant improvement in obstructive sleep apnea
All grade TEAEs: Cough, % [4]: (50.0%)
All grade TEAEs: Eye Disorders, % [4]: (57.9%)
All grade TEAEs: Increased tearing, % [4]: (52.6%)
All grade TEAEs: Nasal discomfort, % [4]: (36.8%)
All grade TEAEs: Respiratory, % [4]: (97.4%)
All grade TEAEs: Rhinorrhea, % [4]: (18.4%)
All grade TEAEs: Sneezing, % [4]: (84.2%)
All grade TEAEs: Throat irritations, % [4]: (34.2%)
D90 of drug substance ([2]; micronized drug substance): approximately 4.9 μm
D90 of drug substance ([2]; non micronized batch sieved with a 32 μm mesh): approximately 28 μm
inhibition of upper airway collapsibility [5]: dose-dependently inhibit upper airway collapsibility

Structure (SMILES): COc1ccc(CC(=O)NCc2ccccc2-c2ccccc2C(=O)NCCc2cccnc2)cc1 [Cmpd 1 batch E]
Particle size distribution d10 ([2]; micronized drug substance): d10 0.96 μm
Particle size distribution d50 ([2]; micronized drug substance): d50 4.14 μm
Particle size distribution d90 ([2]; micronized drug substance): d90 8.85 μm
